The source made the active and inactive calls.
How the values were obtained:
[1] = biological target: Delta-type opioid receptor (Homo sapiens, UniProt P41143); experiment: Counterscreen for agonists of heterodimerization of the mu 1 (OPRM1) and delta 1 (OPRD1) opioid receptors: Luminescence-based cell-based high throughput dose response assay to identify agonists of OPRD1 homodimerization. [Related pubchem assays (depositor defined):AID504326, AID504355, AID504692, AID504904, AID504905]; format: functional
Sequence of Delta-type opioid receptor (P41143 whole entry): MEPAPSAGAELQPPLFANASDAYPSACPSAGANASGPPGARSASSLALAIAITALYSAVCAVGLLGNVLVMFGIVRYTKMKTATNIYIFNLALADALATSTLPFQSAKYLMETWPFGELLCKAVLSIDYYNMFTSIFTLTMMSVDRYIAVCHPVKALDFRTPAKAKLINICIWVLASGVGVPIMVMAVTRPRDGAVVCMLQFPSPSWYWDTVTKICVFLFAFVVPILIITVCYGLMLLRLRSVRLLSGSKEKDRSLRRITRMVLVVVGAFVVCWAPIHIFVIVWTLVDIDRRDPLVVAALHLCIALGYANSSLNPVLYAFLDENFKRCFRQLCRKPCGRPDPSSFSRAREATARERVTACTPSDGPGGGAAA

Mu-type opioid receptor = Mu-type opioid receptor (Homo sapiens, UniProt P35372); experiment: Counterscreen for agonists of heterodimerization of the mu 1 (OPRM1) and delta 1 (OPRD1) opioid receptors: Luminescence-based cell-based high throughput dose response assay to identify agonists of OPRM1 homodimerization.; format: functional;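 further: U2OS cells expressing OPRM1 and beta-arrestin as split beta-galactosidase partners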
Sequence of Mu-type opioid receptor (P35372 whole entry): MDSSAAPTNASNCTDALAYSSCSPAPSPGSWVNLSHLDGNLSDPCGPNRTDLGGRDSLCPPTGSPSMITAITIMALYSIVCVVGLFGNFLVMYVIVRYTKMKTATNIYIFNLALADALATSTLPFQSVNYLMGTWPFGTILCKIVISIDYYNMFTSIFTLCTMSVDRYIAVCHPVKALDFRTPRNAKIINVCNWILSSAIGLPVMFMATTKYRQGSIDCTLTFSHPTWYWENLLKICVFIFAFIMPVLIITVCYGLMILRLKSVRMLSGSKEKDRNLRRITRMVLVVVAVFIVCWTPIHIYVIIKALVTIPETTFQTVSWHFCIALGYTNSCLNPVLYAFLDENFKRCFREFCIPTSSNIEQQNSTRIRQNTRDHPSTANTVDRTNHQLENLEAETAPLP

[2] = biological target: 5-hydroxytryptamine receptor 5A (Homo sapiens, UniProt P47898); experiment: Counterscreen for agonists of OPRM1-OPRD1 heterodimerization: luminescence-based cell-based high throughput dose response assay to identify agonists of 5-hydroxytryptamine (serotonin) 5A receptor (HTR5A). [Related pubchem assays (depositor defined):AID504326, AID504355, AID504692, AID504904, AID504905]; format: functional
Sequence of 5-hydroxytryptamine receptor 5A (P47898 whole entry): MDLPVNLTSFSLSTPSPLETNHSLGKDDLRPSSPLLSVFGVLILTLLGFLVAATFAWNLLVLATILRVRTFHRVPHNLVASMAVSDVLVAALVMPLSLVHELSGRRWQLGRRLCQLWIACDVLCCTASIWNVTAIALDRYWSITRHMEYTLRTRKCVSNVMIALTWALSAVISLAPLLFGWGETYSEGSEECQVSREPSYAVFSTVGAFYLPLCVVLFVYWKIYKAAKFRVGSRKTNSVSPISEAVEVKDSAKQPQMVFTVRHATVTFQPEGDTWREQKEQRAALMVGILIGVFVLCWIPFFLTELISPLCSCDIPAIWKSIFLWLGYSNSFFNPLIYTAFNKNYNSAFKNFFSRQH

SUMO E1/E2 = SUMO E1/E2 (Homo sapiens, UniProt P63279+Q9UBE0+Q9UBT2); experiment: SAR analysis of SUMOylation using HTRF in an in-Vitro dose response assay. [Related pubchem assays (depositor defined):AID2006, AID2011, AID2018, AID2069, AID2658]; format: functional
[3] = biological target: T1, Voltage-gated N-type calcium channel alpha-1B subunit/Amyloid beta A4 precursor protein-binding family A member 1 (Homo sapiens, UniProt Q00975+Q02410); experiment: disruptors of Mint-PDZ/N-type channel peptide interaction – biochemical, HTRF, set 2, SAR follow-up (AID 434980); format: functional
T1 sequence (Q00975 whole entry): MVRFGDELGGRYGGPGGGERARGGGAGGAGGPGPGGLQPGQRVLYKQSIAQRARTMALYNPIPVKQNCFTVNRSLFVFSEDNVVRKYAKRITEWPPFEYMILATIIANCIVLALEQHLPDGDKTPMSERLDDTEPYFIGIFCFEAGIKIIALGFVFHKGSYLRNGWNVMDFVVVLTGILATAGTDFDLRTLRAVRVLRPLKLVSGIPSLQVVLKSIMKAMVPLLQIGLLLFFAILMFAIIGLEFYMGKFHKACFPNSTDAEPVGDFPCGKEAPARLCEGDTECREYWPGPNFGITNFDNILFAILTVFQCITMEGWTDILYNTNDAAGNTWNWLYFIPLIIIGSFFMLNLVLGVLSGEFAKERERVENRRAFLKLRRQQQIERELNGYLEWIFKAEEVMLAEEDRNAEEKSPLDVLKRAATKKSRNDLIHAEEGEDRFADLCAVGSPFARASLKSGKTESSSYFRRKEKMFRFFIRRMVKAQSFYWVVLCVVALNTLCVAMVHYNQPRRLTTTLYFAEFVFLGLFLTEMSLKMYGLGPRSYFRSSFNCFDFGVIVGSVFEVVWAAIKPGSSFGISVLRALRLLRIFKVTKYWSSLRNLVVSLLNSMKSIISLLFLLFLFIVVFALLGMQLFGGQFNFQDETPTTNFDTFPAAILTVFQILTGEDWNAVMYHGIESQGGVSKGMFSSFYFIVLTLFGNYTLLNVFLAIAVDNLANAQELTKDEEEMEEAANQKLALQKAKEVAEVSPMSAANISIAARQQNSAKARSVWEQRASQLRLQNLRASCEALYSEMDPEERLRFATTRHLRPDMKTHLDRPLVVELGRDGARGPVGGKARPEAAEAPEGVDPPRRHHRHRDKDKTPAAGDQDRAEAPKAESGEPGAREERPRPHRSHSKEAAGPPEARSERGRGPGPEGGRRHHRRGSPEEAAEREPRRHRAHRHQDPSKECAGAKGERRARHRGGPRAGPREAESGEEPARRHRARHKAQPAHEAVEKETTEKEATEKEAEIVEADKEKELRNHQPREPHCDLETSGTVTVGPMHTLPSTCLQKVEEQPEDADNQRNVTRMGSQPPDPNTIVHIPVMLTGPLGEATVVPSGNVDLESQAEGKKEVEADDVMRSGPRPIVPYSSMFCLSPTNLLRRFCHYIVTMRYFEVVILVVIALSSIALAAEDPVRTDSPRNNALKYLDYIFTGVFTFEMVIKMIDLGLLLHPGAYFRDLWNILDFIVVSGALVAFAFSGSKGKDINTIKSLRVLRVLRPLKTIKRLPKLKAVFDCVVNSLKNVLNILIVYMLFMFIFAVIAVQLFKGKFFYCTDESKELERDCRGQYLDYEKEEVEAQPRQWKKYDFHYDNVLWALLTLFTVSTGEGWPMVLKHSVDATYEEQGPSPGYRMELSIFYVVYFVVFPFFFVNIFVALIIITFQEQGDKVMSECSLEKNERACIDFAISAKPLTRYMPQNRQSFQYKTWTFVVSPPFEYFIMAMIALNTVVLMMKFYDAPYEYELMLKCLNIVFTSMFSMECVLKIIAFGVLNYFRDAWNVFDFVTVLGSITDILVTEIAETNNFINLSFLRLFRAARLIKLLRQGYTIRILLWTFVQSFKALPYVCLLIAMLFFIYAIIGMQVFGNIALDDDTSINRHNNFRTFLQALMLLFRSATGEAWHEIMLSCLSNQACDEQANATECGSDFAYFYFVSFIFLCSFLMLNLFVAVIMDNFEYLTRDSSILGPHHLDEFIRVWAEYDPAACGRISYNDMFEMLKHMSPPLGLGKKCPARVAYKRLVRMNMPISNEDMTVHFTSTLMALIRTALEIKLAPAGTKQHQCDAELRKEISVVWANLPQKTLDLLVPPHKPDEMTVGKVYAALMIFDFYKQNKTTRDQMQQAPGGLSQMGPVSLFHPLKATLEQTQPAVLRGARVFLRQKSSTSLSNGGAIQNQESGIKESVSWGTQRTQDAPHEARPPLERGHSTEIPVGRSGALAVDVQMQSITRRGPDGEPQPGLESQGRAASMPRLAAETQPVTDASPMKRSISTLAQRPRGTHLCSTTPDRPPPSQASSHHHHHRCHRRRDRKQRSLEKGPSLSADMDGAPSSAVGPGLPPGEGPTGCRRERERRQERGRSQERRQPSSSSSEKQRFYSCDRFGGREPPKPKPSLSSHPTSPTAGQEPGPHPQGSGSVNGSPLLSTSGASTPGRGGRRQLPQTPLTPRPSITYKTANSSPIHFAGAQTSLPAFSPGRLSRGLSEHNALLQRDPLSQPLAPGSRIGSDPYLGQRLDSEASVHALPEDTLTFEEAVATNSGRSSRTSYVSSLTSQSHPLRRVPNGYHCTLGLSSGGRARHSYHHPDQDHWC
T1 sequence (Q02410 whole entry): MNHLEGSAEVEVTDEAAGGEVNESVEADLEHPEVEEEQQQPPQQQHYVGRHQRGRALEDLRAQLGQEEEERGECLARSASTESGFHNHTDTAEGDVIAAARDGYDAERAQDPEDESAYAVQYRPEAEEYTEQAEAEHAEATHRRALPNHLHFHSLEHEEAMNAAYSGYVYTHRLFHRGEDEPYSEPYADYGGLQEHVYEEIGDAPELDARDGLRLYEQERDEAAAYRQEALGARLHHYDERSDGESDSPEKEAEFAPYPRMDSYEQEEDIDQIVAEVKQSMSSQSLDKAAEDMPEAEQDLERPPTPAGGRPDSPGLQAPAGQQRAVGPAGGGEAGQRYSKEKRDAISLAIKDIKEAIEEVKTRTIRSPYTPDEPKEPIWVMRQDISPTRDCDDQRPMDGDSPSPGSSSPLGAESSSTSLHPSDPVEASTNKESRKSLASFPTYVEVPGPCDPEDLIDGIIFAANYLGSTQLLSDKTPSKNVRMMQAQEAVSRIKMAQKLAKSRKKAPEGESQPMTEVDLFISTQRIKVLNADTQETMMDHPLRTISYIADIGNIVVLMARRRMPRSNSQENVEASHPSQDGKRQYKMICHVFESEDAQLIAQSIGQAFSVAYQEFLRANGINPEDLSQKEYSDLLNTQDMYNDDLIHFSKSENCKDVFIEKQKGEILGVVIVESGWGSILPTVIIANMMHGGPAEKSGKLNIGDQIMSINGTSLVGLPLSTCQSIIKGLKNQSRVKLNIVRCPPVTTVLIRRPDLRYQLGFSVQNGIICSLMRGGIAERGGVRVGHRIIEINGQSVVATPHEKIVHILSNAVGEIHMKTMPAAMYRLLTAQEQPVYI

[4] = biological target: T1, Voltage-gated N-type calcium channel alpha-1B subunit/Amyloid beta A4 precursor protein-binding family A member 1; experiment: disruptors of Mint-PDZ/N-type channel peptide interaction – biochemical, HTRF, SAR follow-up (AID 2489); format: functional
[5] = biological target: T2, Dual specificity protein phosphatase 3 (Homo sapiens, UniProt P51452); experiment: VHR1 phosphatase inhibitors, primary screen, biochemical, absorbance, uHTS (AID 1654)
T2 sequence (P51452 whole entry): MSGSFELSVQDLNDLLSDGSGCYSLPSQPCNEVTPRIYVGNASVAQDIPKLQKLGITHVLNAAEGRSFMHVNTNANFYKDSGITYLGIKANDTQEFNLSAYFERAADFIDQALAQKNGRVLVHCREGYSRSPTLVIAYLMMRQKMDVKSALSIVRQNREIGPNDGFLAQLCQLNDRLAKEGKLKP

[6] = biological target: T2, Dual specificity protein phosphatase 3; experiment: VHR1 phosphatase inhibitors, biochemical (AID 1878)
[7] = biological target: T3, Dual specificity protein phosphatase 6 (Rattus norvegicus, UniProt Q64346); experiment: inhibition of rat DUSP6 enzyme activity – biochemical, in vitro, primary screen (AID 425)
T3 sequence (Q64346 whole entry): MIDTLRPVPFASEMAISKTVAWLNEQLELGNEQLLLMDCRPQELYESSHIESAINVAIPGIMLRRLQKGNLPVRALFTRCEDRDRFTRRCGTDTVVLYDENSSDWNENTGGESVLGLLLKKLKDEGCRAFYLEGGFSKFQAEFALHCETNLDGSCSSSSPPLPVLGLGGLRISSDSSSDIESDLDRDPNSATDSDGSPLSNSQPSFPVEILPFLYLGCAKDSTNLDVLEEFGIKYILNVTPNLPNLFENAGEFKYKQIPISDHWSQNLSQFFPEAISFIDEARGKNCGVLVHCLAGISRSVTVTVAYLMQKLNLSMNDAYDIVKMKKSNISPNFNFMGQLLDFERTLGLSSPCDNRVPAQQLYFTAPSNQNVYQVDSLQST

[8] = biological target: T4, Tyrosine-protein phosphatase non-receptor type 11 (Homo sapiens, UniProt Q06124); experiment: PTPN11 enzyme inhibitors – biochemical, selectivity assay for STEP inhibitor project, dose response (AID 602367); format: functional; settings: read-out: IC50_Mean
T4 sequence (Q06124 whole entry): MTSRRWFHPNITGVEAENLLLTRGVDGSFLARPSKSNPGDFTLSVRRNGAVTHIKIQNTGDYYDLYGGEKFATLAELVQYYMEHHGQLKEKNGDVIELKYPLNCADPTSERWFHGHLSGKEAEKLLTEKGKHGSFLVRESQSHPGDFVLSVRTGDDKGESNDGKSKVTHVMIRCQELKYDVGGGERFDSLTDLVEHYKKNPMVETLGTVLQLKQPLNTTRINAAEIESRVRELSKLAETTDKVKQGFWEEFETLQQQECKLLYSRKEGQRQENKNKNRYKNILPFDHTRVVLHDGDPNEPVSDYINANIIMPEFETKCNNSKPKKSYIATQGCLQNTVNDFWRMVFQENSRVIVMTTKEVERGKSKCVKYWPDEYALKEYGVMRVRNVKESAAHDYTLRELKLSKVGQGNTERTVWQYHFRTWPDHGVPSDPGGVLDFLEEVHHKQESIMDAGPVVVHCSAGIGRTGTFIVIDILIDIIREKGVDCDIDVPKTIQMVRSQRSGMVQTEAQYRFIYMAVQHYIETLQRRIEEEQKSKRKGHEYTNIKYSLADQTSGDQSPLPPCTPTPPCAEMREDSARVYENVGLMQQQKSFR

[9] = biological target: T5, Tyrosine-protein phosphatase non-receptor type 5 (Homo sapiens, UniProt P54829); experiment: PTPN5 enzyme inhibition – biochemical, fluorescence intensity, uHTS hits, confirmation (AID 602372); format: functional; settings: read-out: IC50_Mean
T5 sequence (P54829 whole entry): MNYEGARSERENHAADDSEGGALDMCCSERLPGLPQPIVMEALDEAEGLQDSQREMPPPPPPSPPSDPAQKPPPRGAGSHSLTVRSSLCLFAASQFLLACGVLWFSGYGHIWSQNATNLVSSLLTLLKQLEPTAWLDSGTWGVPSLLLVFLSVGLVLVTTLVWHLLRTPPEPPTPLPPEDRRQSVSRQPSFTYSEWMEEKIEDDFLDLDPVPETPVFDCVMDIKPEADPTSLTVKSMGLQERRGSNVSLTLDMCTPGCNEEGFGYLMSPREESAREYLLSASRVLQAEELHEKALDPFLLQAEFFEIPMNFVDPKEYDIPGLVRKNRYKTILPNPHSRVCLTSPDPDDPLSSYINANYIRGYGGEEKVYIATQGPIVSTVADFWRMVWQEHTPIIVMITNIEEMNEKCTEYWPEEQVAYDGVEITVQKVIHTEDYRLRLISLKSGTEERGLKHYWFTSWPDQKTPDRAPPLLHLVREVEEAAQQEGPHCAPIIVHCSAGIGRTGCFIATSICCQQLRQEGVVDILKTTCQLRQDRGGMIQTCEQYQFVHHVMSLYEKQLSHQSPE

[10] = biological target: T2, Dual specificity protein phosphatase 3; experiment: VHR phosphatase inhibition, dose response, selectivity assay for STEP inhibitor project, biochemical (AID 602374); format: functional; settings: read-out: IC50_Mean
[11] = biological target: T6, RNA-binding protein pos-1 (Caenorhabditis elegans, UniProt G5EF15); experiment: disruptors of C. elegans POS-1 RNA interaction – biochemical, fluorescence polarization, dose response (AID 1964);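 further: purified POS-1 fused to maltose binding protein made in E. coli; potency of compounds blocking POS-1 binding to fluorescent RNA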
T6 sequence (G5EF15 whole entry): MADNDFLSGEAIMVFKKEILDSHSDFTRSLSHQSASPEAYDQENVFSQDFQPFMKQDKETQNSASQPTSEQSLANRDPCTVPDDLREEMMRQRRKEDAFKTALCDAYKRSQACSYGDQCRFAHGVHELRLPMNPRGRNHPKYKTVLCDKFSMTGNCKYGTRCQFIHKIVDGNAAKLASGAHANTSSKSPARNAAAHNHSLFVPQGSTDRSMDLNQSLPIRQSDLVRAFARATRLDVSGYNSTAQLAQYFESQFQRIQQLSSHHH

[12] = biological target: Peroxisome proliferator-activated receptor gamma/Nuclear receptor coactivator 1 (Homo sapiens, UniProt P37231); experiment: (§1) TR-FRET dose response biochemical High Throughput Screening assay for agonists of the steroid receptor coactivator 1 (SRC-1) recruitment by the peroxisome proliferator-activated receptor gamma (PPAR gamma): non-selective agonists. [Related pubchem assays (depositor defined):AID1300, AID1808, AID504735, AID631]; format: protein assay
[13] = biological target: Peroxisome proliferator-activated receptor gamma/Nuclear receptor coactivator 3 (Homo sapiens, UniProt P37231); experiment: as §1, with “3 (SRC-3)” for “1 (SRC-1)”, “assays: 1301 (Confirmation screen.), 1048 (Primary screen.)]” for “assays (depositor defined):AID1300, AID1808, AID504735, AID631]”; format: functional
[14] = biological target: T7, Zinc finger protein mex-5 (Caenorhabditis elegans, UniProt Q9XUB2); experiment: potency of MEX-5 RNA-binding blockers – biochemical, C. elegans, fluorescence polarization, dose response (AID 1960)
T7 sequence (Q9XUB2 whole entry): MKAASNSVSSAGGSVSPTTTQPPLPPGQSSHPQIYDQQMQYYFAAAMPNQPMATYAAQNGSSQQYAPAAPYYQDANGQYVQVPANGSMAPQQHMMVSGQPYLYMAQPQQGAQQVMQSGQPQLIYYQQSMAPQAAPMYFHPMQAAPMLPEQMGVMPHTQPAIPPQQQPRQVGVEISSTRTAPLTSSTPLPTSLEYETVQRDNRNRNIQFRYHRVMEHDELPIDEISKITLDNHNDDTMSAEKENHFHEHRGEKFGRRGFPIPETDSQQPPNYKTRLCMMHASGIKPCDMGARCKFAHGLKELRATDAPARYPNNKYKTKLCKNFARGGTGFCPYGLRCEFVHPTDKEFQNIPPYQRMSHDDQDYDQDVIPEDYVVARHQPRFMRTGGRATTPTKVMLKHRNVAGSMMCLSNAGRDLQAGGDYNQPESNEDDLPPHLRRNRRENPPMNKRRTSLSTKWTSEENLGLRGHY

[15] = biological target: Luciferin 4-monooxygenase (Photinus pyralis, UniProt P08659); experiment: inhibition of purified Photinus pyralis luciferase – biochemical, luminescence, dose response (AID 1891)
Sequence of Luciferin 4-monooxygenase (P08659 whole entry): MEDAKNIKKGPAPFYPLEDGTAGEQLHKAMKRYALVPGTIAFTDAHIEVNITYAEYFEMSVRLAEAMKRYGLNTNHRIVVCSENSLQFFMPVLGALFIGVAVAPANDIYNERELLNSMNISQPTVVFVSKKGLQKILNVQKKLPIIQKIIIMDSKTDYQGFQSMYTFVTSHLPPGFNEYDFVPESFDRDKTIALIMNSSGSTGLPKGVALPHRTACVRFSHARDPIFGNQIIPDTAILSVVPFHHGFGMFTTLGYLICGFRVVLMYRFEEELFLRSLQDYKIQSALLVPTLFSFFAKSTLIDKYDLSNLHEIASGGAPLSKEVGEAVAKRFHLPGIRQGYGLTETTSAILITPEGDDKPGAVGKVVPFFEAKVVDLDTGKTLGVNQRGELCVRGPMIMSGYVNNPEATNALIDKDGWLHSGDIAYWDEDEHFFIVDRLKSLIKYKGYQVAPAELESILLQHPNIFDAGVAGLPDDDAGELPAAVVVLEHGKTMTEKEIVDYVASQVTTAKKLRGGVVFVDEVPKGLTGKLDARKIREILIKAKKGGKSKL

[16] = Luminescence Cell-Based Dose Confirmation HTS to Identify Inhibitors of Platelet Dense Granule Release. [Related pubchem assays: 1663 (Primary HTS), 1678 (Summary of Project)]; format: functional
[17] = biological target: Peroxisome proliferator-activated receptor gamma/Nuclear receptor coactivator 2 (Homo sapiens, UniProt P37231); experiment: TR-FRET dose response biochemical High Throughput Screening assay for agonists of the steroid receptor coactivator 2 (SRC-2) recruitment by the peroxisome proliferator-activated receptor gamma (PPAR gamma): non-selective agonists. [Related pubchem assays: 1297, 1032 ]; format: functional
[18] = biological target: T8, Endoribonuclease toxin MazF (Escherichia coli K-12, UniProt P0AE70); experiment: activation of MazEF endoribonuclease cleavage – biochemical, fluorescence, single-stranded RNA substrate, uHTS hits, dose response (AID 588481); format: functional
T8 sequence (P0AE70 whole entry): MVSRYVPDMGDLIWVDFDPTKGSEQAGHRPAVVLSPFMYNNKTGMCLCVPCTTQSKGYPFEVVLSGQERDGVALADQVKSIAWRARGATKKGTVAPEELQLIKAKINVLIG

[19] = biological target: T8, Endoribonuclease toxin MazF; experiment: substrate-only fluorescence increase artefacts – biochemical, single-stranded RNase substrate, counter-screen for MazEF activator project, dose response (AID 588502); format: functional

With `COc1ccc(C2C(C#N)=C(N)N(c3sc4c(c3C#N)CCCC4)C3=C2C(=O)CC(C)(C)C3)cc1` (centres undefined) the EC50 [1] was 11.6 µM (inactive), the EC50 (Mu-type opioid receptor) was > 92.5 µM (inactive) and the EC50 [2] was > 92.5 µM (inactive).
With `COc1ccc(CNC(=O)c2cc(-c3ccco3)nc3ccccc23)cc1` the IC50 (SUMO E1/E2) was 2.61 µM (active), the IC50 [3] was 20.3 µM (active) and the IC50 [4] was > 56.8 µM (inactive).
With `CC(CC(=O)N(CCC1=CCCCC1)c1c(N)n(Cc2ccccc2)c(=O)[nH]c1=O)c1ccccc1` (centres undefined) the EC50 [1] was > 92.5 µM (inactive), the EC50 (Mu-type opioid receptor) was > 92.5 µM (inactive) and the EC50 [2] was > 92.5 µM (inactive).
In the case of `NC(=O)C1(N2CCCCC2)CCN(C(=S)Nc2ccc(S(N)(=O)=O)cc2)CC1`, the IC50 [5] was 1.86 µM (active), the IC50 [6] was 3.38 µM (active) and the IC50 [7] was > 158 µM (not active). The IC50 [8] was 2 µM (active), the IC50 [9] was 11.6 µM (active) and the IC50 [10] was 0.811 µM (active).
With `Cc1nnc(N2C(=O)C(O)=C(C(=O)c3ccco3)C2c2ccc(C(C)(C)C)cc2)s1` (centres undefined) the EC50 [11] was 24.9 µM (active), the EC50 [12] was > 2.94 µM (inactive) and the EC50 [13] was > 79.4 µM (not active). For the same molecule, the EC50 [14] was 7.86 µM (active), the EC50 [15] was > 112 µM (not active) and the EC50 [16] was > 112 µM (not active). For the same molecule, the EC50 [17] was 28.3 µM (not active), the EC50 [18] was > 99 µM (inactive) and the EC50 [19] was 19.7 µM (active).
